# Assay results: US20260248918A1, “COMPOSITIONS AND METHODS OF SUPPRESSING AVERSIVENESS OF PHARMACEUTICALS AND INGESTIBLE MATERIALS” (Monell Chemical Senses Center, priority 2019, published 2026)
# Read-outs that look alike come from different tables or passages of the source.
# Experiments:
# [1] = test system: human subjects; test: Human sensory testing (gLMS) of API bitterness with blocker, as pre-rinse or admixture; format: in vivo
# Source text: Methods of evaluating the sensory properties of the API and admixtures with the blocker compounds of Formula A are adopted from Breslin PA, and Tharp CD, “Reduction of saltiness and bitterness after a chlorhexidine rinse,” Chem Senses. 2001 February; 26(2):105-16. More details are illustrated below.
# Subjects participate in the study after providing informed consent. Gender of the subjects is balanced between male and female. The subjects are adults with ages ranging from 20 years old to 50 years old. […] The participants are asked to refrain from eating, drinking, or chewing gum for 1 hr prior to testing. Subjects are trained to use the General Labeled Magnitude Scale (gLMS) following standard published procedures. See. e.g., Breslin P A, and Tharp C D. “Reduction of saltiness and bitterness after a chlorhexidine rinse,” Chem Senses. 2001 February; 26(2): 105-16; Keast and Breslin, “Bitterness suppression with zinc sulfate and Na-cyclamate: a model of combined peripheral and central neural approaches to flavor modification.” Pharm Res. 2005 November; 22(11):1970-7. Epub 2005 Aug. 26; Green et al, “Evaluating the ‘Labeled Magnitude Scale’ for measuring sensations of taste and smell.” Chem Senses. 1996 June; 21(3):323-34; Barry G. Green, et al, “Derivation and evaluation of a semantic scale of oral sensation magnitude with apparent ratio properties,” Chemical Senses, Volume 18, Issue 6, 1 Dec. 1993, Pages 683-702; and Bartoshuk L M, “Comparing sensory experiences across individuals: recent psychophysical advances illuminate genetic variation in taste perception.” Chem Senses. 2000 August; 25(4):447-60.
# The selected API (in racemic or L form as applicable) is diluted/dissolved in deionized (di) filtered water upon use into various concentrations. […] The API is prepared and dissolved in deionized filtered water or in […] 6-methylflavone to a final concentration. All solutions are stored on ice or at 4° C. to 8° C. and brought up to room temperature prior to testing.
# The following testing protocol is performed. The tested solutions are provided to the subjects in random order. Subjects rinsed with di water at least four times over a 2-minute period prior to tasting each solution. The subjects are instructed to wear nose clips to eliminate olfactory input, pour the whole solution in their mouth for 3-5 seconds, and rate the perceived sensation (including bitterness, sourness, astringency, burning, stinging and nausea) intensity of the solution while it remained in the mouth, prior to expectorating. Taste intensity is recorded on a computerized gLMS, analyzed and plotted.
# [2] = test system: Benzodiazepine receptor (gamma-aminobutyric acid receptor subunit); conditions: rat cortical membranes; cited from earlier work
# [3] = test system: androgen receptor; conditions: human MDA-kb2 cells; cited from earlier work
# [4] = test system: hTBEC cells; test: hTBEC bioassay: antagonism of bitter-drug stimulation of human taste bud cells; format: cell-based; conditions: for IC50: Homo sapiens; for % maximum inhibition: at 50 μM antagonist
# Experimental: FIGS. 12A and 12B show concentration-response curves or relationships (CRCs) for antagonism of TAF or piperaquine stimulation of hTBEC cells with an optimal concentration of each bitter-tasting medicine in vitro. Each inhibition curve was fitted to the data so as to calculate an IC50 or the concentration that inhibits 50% of the signal. A Hill slope was calculated, along with the % maximal inhibition and the concentration of antagonist, 6-methylflavone, (indicated by the ref ST069348) required to fully block the response in the assay. These metrics were slightly different for antagonism by 6 -methylflavone of TAF versus piperaquine. FIG. 12A is a graph showing the suppression of human taste bud cells (hTBEC) cells with 6-methylflavone added to 300 micromolar TAF stimulated cells. […] FIG. 12B is a graph showing the suppression of hTBEC cells with 6-methylflavone added to 100 micromolar Piperaquine stimulated cells. IC50 is 2.0 μM for 6-methylflavone antagonism of Piperaquine stimulation.
# Using a primary hTBEC platform, a high throughput screening (HTS) was conducted with more than 2,000 small molecular weight purified phytochemicals and botanical extracts. The screen identified 40 antagonists that suppressed taste cell activation by target APIs. […] TAS2R1 is responsive to piperaquine and tenofovir. (See FIG. 4)
# [5] = biological target: T1, glucocorticoid receptor (Homo sapiens, UniProt P04150); conditions: human MDA-kb2 cells; cited from earlier work
# T1 construct: glucocorticoid receptor in human MDA-kb2 cells; endogenous in cells; host or cells: MDA-kb2
# T1 sequence (P04150 1-777): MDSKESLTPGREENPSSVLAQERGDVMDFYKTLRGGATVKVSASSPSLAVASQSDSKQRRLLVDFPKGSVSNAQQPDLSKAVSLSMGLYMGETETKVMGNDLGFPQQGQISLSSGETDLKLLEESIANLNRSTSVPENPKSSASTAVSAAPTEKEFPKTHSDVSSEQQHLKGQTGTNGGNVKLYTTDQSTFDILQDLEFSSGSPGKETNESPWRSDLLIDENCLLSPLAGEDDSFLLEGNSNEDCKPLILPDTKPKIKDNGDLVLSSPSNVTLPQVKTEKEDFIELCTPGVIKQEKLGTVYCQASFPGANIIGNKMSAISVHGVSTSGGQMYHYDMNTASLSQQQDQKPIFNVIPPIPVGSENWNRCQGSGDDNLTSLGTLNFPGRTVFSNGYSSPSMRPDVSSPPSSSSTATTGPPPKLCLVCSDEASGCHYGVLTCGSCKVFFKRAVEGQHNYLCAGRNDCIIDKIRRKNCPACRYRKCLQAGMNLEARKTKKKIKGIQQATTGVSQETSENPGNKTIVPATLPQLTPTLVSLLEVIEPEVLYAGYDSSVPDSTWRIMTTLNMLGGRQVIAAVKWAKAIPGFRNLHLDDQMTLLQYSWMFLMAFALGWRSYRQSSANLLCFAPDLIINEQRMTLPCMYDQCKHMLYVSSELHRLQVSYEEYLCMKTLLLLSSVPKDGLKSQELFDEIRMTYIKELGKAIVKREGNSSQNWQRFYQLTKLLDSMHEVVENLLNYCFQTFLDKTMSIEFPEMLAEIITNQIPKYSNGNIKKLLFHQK
# [6] = test system: Gamma-aminobutyric acid A receptor alpha; conditions: in vitro; cited from earlier work
smiles,measurement,setting,value
Cc1ccc2oc(-c3ccccc3)cc(=O)c2c1 [6-methylflavone],Blocking the bitter taste of piperaquine and TAF,"[1]; admixture, subset of human subjects",effective antagonist
same,Suppression of TAF bitterness,"[1]; another subject, FIGS. 11A/11B, 0.5 mg/mL TAF, pre-rinse then admixture, blocker 100 μM",worked
same,Suppression of TAF bitterness,"[1]; another subject, FIGS. 11A/11B, 0.5 mg/mL TAF, pre-rinse then admixture, blocker 1 mM",worked even better
same,Suppression of TAF bitterness,"[1]; one subject, FIGS. 8A/8B, 0.5 mg/mL TAF with and without 100 μM blocker",significant suppression
same,Suppression of TAF bitterness,"[1]; one subject, FIGS. 9A/9B, 0.5 mg/mL TAF alone vs pre-rinse vs pre-rinse containing 100 μM blocker",did not show significant suppression
same,Suppression of TAF bitterness,"[1]; one subject, FIGS. 10A/10B, 0.5 mg/mL TAF, pre-rinse then admixture, blocker 100 μM",no bitterness suppression
same,Average perceived bitterness intensity of piperaquine,"[1]; piperaquine 8 mg/mL treated with 100 μM blocker, FIG. 6",affected
same,Blocking effect for TAF and piperaquine with added pre-rinse,"[1]; pre-rinse with the blocker added, compared with admixture alone",stronger
same,In vitro affinity against Benzodiazepine receptor binding,[2],active
same,"Agonist activity at androgen receptor, stimulation of luciferase activity",[3],agonist activity
same,IC50,"[4]; hTBEC cells stimulated with 100 micromolar Piperaquine, FIG. 12B, read-out: IC50 for antagonism of Piperaquine stimulation",2 µM
same,IC50,"[4]; hTBEC cells stimulated with 300 micromolar TAF, FIG. 12A, read-out: IC50 for antagonism of TAF stimulation",7.7 µM
same,% maximum inhibition,"[4]; 100 micromolar Piperaquine stimulated hTBEC cells, FIG. 12B",> 95%
same,% maximum inhibition,"[4]; 300 micromolar TAF stimulated hTBEC cells, FIG. 12A",> 95%
same,Hill slope,"[4]; hTBEC cells stimulated with 100 micromolar Piperaquine, FIG. 12B",1.992
same,Hill slope,"[4]; hTBEC cells stimulated with 300 micromolar TAF, FIG. 12A",2.18
same,Blocking the stimulation of hTBEC cells by bitter tasting drugs,"[4]; stimulated by TAF, racemic praziquantel and piperaquine",quite potent and effective
same,Antagonist activity at glucocorticoid receptor,[5],antagonist activity
same,Inhibition of [3H]-Ro-15-1788 binding,[6],has the ability to inhibit
